Source: patent US10280149B2, “Therapeutic compounds and uses thereof” (GENENTECH, INC., priority 2015, dated 2019)

Target: Full length KDM2B (Homo sapiens (Human), UniProt Q8NHM5)
Experiment: KDM2B TR-FRET assay for determining inhibitor IC50
Assay type: biochemical
Settings: TR-FRET (HTRF), biotin-H3K36me2 peptide substrate, 2-OG 0.3 μM or 6 μM
Text: KDM2B TR-FRET Assay for Determining Inhibitor IC50
The KDM2B TR-FRET Assay described above represents an additional embodiment of the invention.

Sequence of Full length KDM2B (Q8NHM5 whole entry): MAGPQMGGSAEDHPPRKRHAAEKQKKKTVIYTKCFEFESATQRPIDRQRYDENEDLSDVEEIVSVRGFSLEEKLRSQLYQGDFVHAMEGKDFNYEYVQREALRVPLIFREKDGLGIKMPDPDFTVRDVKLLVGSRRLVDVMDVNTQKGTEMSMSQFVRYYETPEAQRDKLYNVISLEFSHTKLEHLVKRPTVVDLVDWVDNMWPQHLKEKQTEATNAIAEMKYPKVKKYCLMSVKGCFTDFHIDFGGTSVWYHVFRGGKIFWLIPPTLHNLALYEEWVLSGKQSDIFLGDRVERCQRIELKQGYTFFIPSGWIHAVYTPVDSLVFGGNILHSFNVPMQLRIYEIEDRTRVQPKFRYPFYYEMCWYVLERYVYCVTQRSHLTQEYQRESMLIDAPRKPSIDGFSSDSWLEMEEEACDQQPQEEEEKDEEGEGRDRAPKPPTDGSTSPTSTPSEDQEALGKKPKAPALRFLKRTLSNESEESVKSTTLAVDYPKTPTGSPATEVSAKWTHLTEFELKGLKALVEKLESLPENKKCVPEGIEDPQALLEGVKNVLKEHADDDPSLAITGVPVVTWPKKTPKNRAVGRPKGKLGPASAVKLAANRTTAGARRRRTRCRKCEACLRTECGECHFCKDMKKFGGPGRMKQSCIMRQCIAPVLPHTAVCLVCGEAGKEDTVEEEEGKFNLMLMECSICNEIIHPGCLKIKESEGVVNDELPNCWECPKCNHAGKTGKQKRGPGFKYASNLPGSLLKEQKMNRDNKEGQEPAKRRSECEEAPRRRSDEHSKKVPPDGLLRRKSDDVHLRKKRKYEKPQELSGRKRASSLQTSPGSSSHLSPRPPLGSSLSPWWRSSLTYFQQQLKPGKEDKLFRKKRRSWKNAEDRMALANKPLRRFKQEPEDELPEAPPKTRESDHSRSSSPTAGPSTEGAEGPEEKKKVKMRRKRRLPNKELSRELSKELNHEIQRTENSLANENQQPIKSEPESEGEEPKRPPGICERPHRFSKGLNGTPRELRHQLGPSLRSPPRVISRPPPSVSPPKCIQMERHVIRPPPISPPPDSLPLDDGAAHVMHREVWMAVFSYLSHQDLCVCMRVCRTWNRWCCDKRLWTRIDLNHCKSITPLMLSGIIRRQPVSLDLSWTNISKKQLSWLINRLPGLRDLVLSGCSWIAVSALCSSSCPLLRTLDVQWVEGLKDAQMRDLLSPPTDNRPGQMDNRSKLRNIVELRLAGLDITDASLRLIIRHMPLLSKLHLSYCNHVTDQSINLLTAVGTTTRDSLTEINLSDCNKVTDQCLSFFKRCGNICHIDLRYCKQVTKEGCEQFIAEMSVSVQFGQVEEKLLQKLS

With `COc1ccc(C(=O)C2CCCN(CC3CC3)C2)cc1` (single isomer, unassigned) [Example 110a, (1-(cyclopropylmethyl)piperidin-3-yl)(4-methoxyphenyl)methanone] the IC50 was 2000 nM.
With `O=C(c1ccc2ccccc2n1)C1CCCN(CC2CC2)C1` (single isomer, unassigned) [Example 117a, (1-(cyclopropylmethyl)piperidin-3-yl)(quinolin-2-yl)methanone] the IC50 was 356 nM.
`COc1cccc2cc(C(=O)C3CN(CC4CC4)CCC3C)ccc12` (single isomer, unassigned) [Example 136a, (1-(cyclopropylmethyl)-4-methylpiperidin-3-yl)(5-methoxynaphthalen-2-yl)methanone] showed an IC50 of 41.4 nM.
With `COc1cccc2cc(C(=O)[C@@H]3CN(CC4CC4)CC[C@@H]3C)ccc12` (single isomer, unassigned) [Example 136b, (1-(cyclopropylmethyl)-4-methylpiperidin-3-yl)(5-methoxynaphthalen-2-yl)methanone] the IC50 was 1200 nM.
`COc1ccc2cc(C(=O)[C@@H]3CN(CC4CC4)CC[C@H]3C)ccc2c1` (single isomer, unassigned) [Example 137b, (1-(cyclopropylmethyl)-4-methylpiperidin-3-yl)(6-methoxynaphthalen-2-yl)methanone] showed an IC50 of 92.8 nM.
Work on `COc1ccc2cc(C(=O)[C@H]3CN(CC4CC4)CC[C@H]3C)ccc2c1` (single isomer, unassigned) [Example 137c, (1-(cyclopropylmethyl)-4-methylpiperidin-3-yl)(6-methoxynaphthalen-2-yl)methanone] yielded an IC50 of 1100 nM.
`COc1ccc2cc(C(=O)[C@H]3CN(CC4CC4)CC[C@@H]3C)ccc2c1` (single isomer, unassigned) [Example 137d, (1-(cyclopropylmethyl)-4-methylpiperidin-3-yl)(6-methoxynaphthalen-2-yl)methanone] showed an IC50 of 3300 nM.
`COc1ccc2cc(C(=O)C3CN(CC4CC4)CCC3C(F)(F)F)ccc2c1` (single isomer, unassigned) [Example 138a, (1-(cyclopropylmethyl)-4-(trifluoromethyl)piperidin-3-yl)(6-methoxynaphthalen-2-yl)methanone] showed an IC50 of 137 nM.
`COc1ccc2cc(C(=O)C3CN(CC4CC4)CCC3C(F)(F)F)ccc2c1` (single isomer, unassigned) [Example 138b, (1-(cyclopropylmethyl)-4-(trifluoromethyl)piperidin-3-yl)(6-methoxynaphthalen-2-yl)methanone] was tested, and the IC50 was 4800 nM.
`COc1ccc2cc(C(=O)[C@H]3C[C@@H](C)CN(CC4CC4)C3)ccc2c1` (single isomer, unassigned) [Example 139a, (1-(cyclopropylmethyl)-5-methylpiperidin-3-yl)(6-methoxynaphthalen-2-yl)methanone] was tested, and the IC50 was 333 nM.
With `CCCC1CCN(C2CCC2)CC1C(=O)c1ccc2cc(OC)ccc2c1` (single isomer, unassigned) [Example 140a, (1-cyclobutyl-4-propylpiperidin-3-yl)(6-methoxynaphthalen-2-yl)methanone] the IC50 was 310 nM.
`CCC[C@H]1CCN(C2CCC2)C[C@@H]1C(=O)c1ccc2cc(OC)ccc2c1` (single isomer, unassigned) [Example 140b, (1-cyclobutyl-4-propylpiperidin-3-yl)(6-methoxynaphthalen-2-yl)methanone] gave an IC50 of 328 nM.
Work on `CCC[C@H]1CCN(C2CCC2)C[C@H]1C(=O)c1ccc2cc(OC)ccc2c1` (single isomer, unassigned) [Example 140c, (1-cyclobutyl-4-propylpiperidin-3-yl)(6-methoxynaphthalen-2-yl)methanone] yielded an IC50 of 5.48 nM.
`CCCC1CCN(C2CCC2)CC1C(=O)c1ccc2cc(OC)ccc2c1` (single isomer, unassigned) [Example 140d, (1-cyclobutyl-4-propylpiperidin-3-yl)(6-methoxynaphthalen-2-yl)methanone] showed an IC50 of 9.96 nM.
`COc1ccc2cc(C(=O)[C@@H]3CN(C4CCC4)CC[C@@H]3c3ccccc3)ccc2c1` (single isomer, unassigned) [Example 141a, (1-cyclobutyl-4-phenylpiperidin-3-yl)(6-methoxynaphthalen-2-yl)methanone] was tested, and the IC50 was 1000 nM.
With `COc1ccc2cc(C(=O)C3CN(C4CCC4)CCC3c3ccccc3)ccc2c1` (single isomer, unassigned) [Example 141b, (1-cyclobutyl-4-phenylpiperidin-3-yl)(6-methoxynaphthalen-2-yl)methanone] the IC50 was 98.7 nM.
`CC[C@@H]1CCN(C2CCC2)C[C@H]1C(=O)c1ccc2cc(OC)ccc2c1` (single isomer, unassigned) [Example 142a, (1-cyclobutyl-4-ethylpiperidin-3-yl)(6-methoxynaphthalen-2-yl)methanone] gave an IC50 of 11.4 nM.
For `CCC1CCN(C2CCC2)CC1C(=O)c1ccc2cc(OC)ccc2c1` (single isomer, unassigned) [Example 142b, (1-cyclobutyl-4-ethylpiperidin-3-yl)(6-methoxynaphthalen-2-yl)methanone], the IC50 was 349 nM.
`CCC1CCN(C2CCC2)CC1C(=O)c1ccc2cc(OC)ccc2c1` (single isomer, unassigned) [Example 142c, (1-cyclobutyl-4-ethylpiperidin-3-yl)(6-methoxynaphthalen-2-yl)methanone] was tested, and the IC50 was 207 nM.
In the case of `CCC1CCN(C2CCC2)CC1C(=O)c1ccc2cc(OC)ccc2c1` (single isomer, unassigned) [Example 142d, (1-cyclobutyl-4-ethylpiperidin-3-yl)(6-methoxynaphthalen-2-yl)methanone], the IC50 is reported as 6.56 nM.
`COc1ccc2cc(C(=O)[C@@H]3CN(C4CCC4)CC[C@@H]3C(C)C)ccc2c1` (single isomer, unassigned) [Example 143a, (1-cyclobutyl-4-isopropylpiperidin-3-yl)(6-methoxynaphthalen-2-yl)methanone] gave an IC50 of 635 nM.
`COc1ccc2cc(C(=O)[C@H]3CN(C4CCC4)CC[C@H]3C(C)C)ccc2c1` (single isomer, unassigned) [Example 143b, (1-cyclobutyl-4-isopropylpiperidin-3-yl)(6-methoxynaphthalen-2-yl)methanone] showed an IC50 of 15.9 nM.
`COc1ccc2cc(C(=O)[C@@H]3CN(C4CCC4)CC[C@@H]3CC(C)C)ccc2c1` (single isomer, unassigned) [Example 144a, (1-cyclobutyl-4-isobutylpiperidin-3-yl)(6-methoxynaphthalen-2-yl)methanone] showed an IC50 of 5.6 nM.
`COc1ccc2cc(C(=O)C3CN(C4CCC4)CCC3CC(C)C)ccc2c1` (single isomer, unassigned) [Example 144b, (1-cyclobutyl-4-isobutylpiperidin-3-yl)(6-methoxynaphthalen-2-yl)methanone] showed an IC50 of 269 nM.
`COc1ccc2cc(C(=O)C3CN(CC4CC4)CCC3OC)ccc2c1` (single isomer, unassigned) [Example 146a, (1-(cyclopropylmethyl)-4-methoxypiperidin-3-yl)(6-methoxynaphthalen-2-yl)methanone] was tested, and the IC50 was 382 nM.
Work on `COc1ccc2cc(C(=O)C3CN(CC4CC4)CCC3OC)ccc2c1` (single isomer, unassigned) [Example 146b, (1-(cyclopropylmethyl)-4-methoxypiperidin-3-yl)(6-methoxynaphthalen-2-yl)methanone] yielded an IC50 of 129 nM.
`CCC1CCN(C2CC2)CC1C(=O)c1ccc2cc(OC)ccc2c1` (single isomer, unassigned) [Example 147a, (1-cyclopropyl-4-ethylpiperidin-3-yl)(6-methoxynaphthalen-2-yl)methanone] showed an IC50 of 2000 nM.
With `CCC1CCN(C2CC2)CC1C(=O)c1ccc2cc(OC)ccc2c1` (single isomer, unassigned) [Example 147b, (1-cyclopropyl-4-ethylpiperidin-3-yl)(6-methoxynaphthalen-2-yl)methanone] the IC50 was 4.9 nM.
Compound `CC1CCN(CC2CC2)CC1C(=O)c1ccc2c(O)cccc2c1` (single isomer, unassigned) [Example 151a, (1-(cyclopropylmethyl)-4-methylpiperidin-3-yl)(5-hydroxynaphthalen-2-yl)methanone] has an IC50 of 315 nM.
For `CC1CCN(CC2CC2)CC1C(=O)c1ccc2c(O)cccc2c1` (single isomer, unassigned) [Example 151b, (1-(cyclopropylmethyl)-4-methylpiperidin-3-yl)(5-hydroxynaphthalen-2-yl)methanone], the IC50 was 39.5 nM.
Compound `COc1cccc(C(=O)[C@@H]2CCCN(CC3CC3)C2)c1` (stereo in doubt) [Example 109a, (1-(cyclopropylmethyl)piperidin-3-yl)(3-methoxyphenyl)methanone] has an IC50 of 14100 nM.
In the case of `COc1cccc(C(=O)[C@H]2CCCN(CC3CC3)C2)c1` (stereo in doubt) [Example 109b, (1-(cyclopropylmethyl)piperidin-3-yl)(3-methoxyphenyl)methanone], the IC50 is reported as 1300 nM.
Compound `COc1ccc(C(=O)[C@@H]2CCCN(CC3CC3)C2)cc1` (stereo in doubt) [Example 110b, (1-(cyclopropylmethyl)piperidin-3-yl)(4-methoxyphenyl)methanone] has an IC50 of 5300 nM.
With `COc1ccccc1C(=O)[C@@H]1CCCN(CC2CC2)C1` (stereo in doubt) [Example 111, (1-(cyclopropylmethyl)piperidin-3-yl)(2-methoxyphenyl)methanone] the IC50 was 3100 nM.
`O=C(c1ccc(Cl)cc1)[C@@H]1CCCN(CC2CC2)C1` (stereo in doubt) [Example 116a, (4-chlorophenyl)(1-(cyclopropylmethyl)piperidin-3-yl)methanone] was tested, and the IC50 was 5800 nM.
For `O=C(c1ccc(Cl)cc1)[C@H]1CCCN(CC2CC2)C1` (stereo in doubt) [Example 116b, (4-chlorophenyl)(1-(cyclopropylmethyl)piperidin-3-yl)methanone], the IC50 was 1400 nM.
`O=C(c1ccc2ccccc2n1)[C@@H]1CCCN(CC2CC2)C1` (stereo in doubt) [Example 117b, (1-(cyclopropylmethyl)piperidin-3-yl)(quinolin-2-yl)methanone] showed an IC50 of 750 nM.
For `O=C(c1cccc(Cl)c1)[C@@H]1CCCN(CC2CC2)C1` (stereo in doubt) [Example 118a, (3-chlorophenyl)(1-(cyclopropylmethyl)piperidin-3-yl)methanone], the IC50 was 6800 nM.
